# Assay results: PubChem BioAssay (NCI)
#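 96-well plates; 48 h exposure; 5 concentrations. Endpoints by linear interpolation between flanking doses. Not reached: highest tested concentration assigned. TGI: total growth inhibition.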
# Tests used:
# Assay in all cases: NCI anticancer screen, dose series, 48 h
# [1] = system: 786-0 renal
# [2] = system: A498 renal
# [3] = system: A549 NSCLC
# [4] = system: ACHN renal
# [5] = system: BT-549 breast
# [6] = system: CAKI-1 renal
# [7] = system: CCRF-CEM leukemia
# [8] = system: COLO 205 colon
# [9] = system: DU-145 prostate
# [10] = system: EKVX NSCLC
# [11] = system: HCT-116 colon
# [12] = system: HCT-15 colon
# [13] = system: HL-60(TB) leukemia
# [14] = system: HOP-62 NSCLC
# [15] = system: HOP-92 NSCLC
# [16] = system: HS 578T breast
# [17] = system: HT29 colon
# [18] = system: IGROV1 ovarian
# [19] = system: K-562 leukemia
# [20] = system: KM12 colon
# [21] = system: LOX IMVI melanoma
# [22] = system: M14 melanoma
# [23] = system: MALME-3M melanoma
# [24] = system: MDA-MB-231 breast
# [25] = system: MDA-MB-435
# [26] = system: MDA-N
# [27] = system: MOLT-4 leukemia
# [28] = system: NCI-H226 lung
# [29] = system: NCI-H23 lung
# [30] = system: NCI-H460 lung
# [31] = system: NCI-H522 lung
# [32] = system: NCI/ADR-RES ovarian
# [33] = system: OVCAR-3 ovarian
# [34] = system: OVCAR-5 ovarian
# [35] = system: OVCAR-8 ovarian
# [36] = system: PC-3 prostate
# [37] = system: RPMI-8226 leukemia
# [38] = system: RXF 393 renal
# [39] = system: SF-268 CNS
# [40] = system: SF-295 CNS
# [41] = system: SF-539 CNS
# [42] = system: SK-MEL-2 melanoma
# [43] = system: SK-MEL-28 melanoma
# [44] = system: SK-MEL-5 melanoma
# [45] = system: SK-OV-3 ovarian
# [46] = system: SN12C renal
# [47] = system: SNB-19 CNS
# [48] = system: SNB-75 CNS
# [49] = system: SW-620 colon
# [50] = system: T-47D breast
# [51] = system: TK-10 renal
# [52] = system: U251 CNS
# [53] = system: UACC-257 melanoma
# [54] = system: UACC-62 melanoma
# [55] = system: UO-31 renal
# [56] = system: MCF7 breast
# [57] = system: SR leukemia
# [58] = system: HCC-2998 colon
# [59] = system: OVCAR-4 ovarian
smiles,measurement,setting,value
CC1=NNC(=O)C1C1CC(c2c[nH]c3ccccc23)=NN(C(N)=O)C1=O (stereo not drawn),TGI,[1],> 100 µM
same,TGI,[2],> 100 µM
same,TGI,[3],> 100 µM
same,TGI,[4],> 100 µM
same,TGI,[5],> 100 µM
same,TGI,[6],> 100 µM
same,TGI,[7],> 100 µM
same,TGI,[8],> 100 µM
same,TGI,[9],> 100 µM
same,TGI,[10],> 100 µM
same,TGI,[11],> 100 µM
same,TGI,[12],> 100 µM
same,TGI,[13],> 100 µM
same,TGI,[14],> 100 µM
same,TGI,[15],> 100 µM
same,TGI,[16],> 100 µM
same,TGI,[17],> 100 µM
same,TGI,[18],> 100 µM
same,TGI,[19],> 100 µM
same,TGI,[20],88.3 µM
same,TGI,[21],> 100 µM
same,TGI,[22],> 100 µM
same,TGI,[23],> 100 µM
same,TGI,[24],> 100 µM
same,TGI,[25],> 100 µM
same,TGI,[26],> 100 µM
same,TGI,[27],> 100 µM
same,TGI,[28],> 100 µM
same,TGI,[29],> 100 µM
same,TGI,[30],> 100 µM
same,TGI,[31],> 100 µM
same,TGI,[32],> 100 µM
same,TGI,[33],> 100 µM
same,TGI,[34],> 100 µM
same,TGI,[35],> 100 µM
same,TGI,[36],> 100 µM
same,TGI,[37],> 100 µM
same,TGI,[38],> 100 µM
same,TGI,[39],> 100 µM
same,TGI,[40],> 100 µM
same,TGI,[41],> 100 µM
same,TGI,[42],> 100 µM
same,TGI,[43],> 100 µM
same,TGI,[44],> 100 µM
same,TGI,[45],> 100 µM
same,TGI,[46],> 100 µM
same,TGI,[47],> 100 µM
same,TGI,[48],> 100 µM
same,TGI,[49],> 100 µM
same,TGI,[50],> 100 µM
same,TGI,[51],> 100 µM
same,TGI,[52],> 100 µM
same,TGI,[53],> 100 µM
same,TGI,[54],> 100 µM
same,TGI,[55],> 100 µM
CCOC(=O)c1cc2c3c(c(C(C)=O)c(O)c2[nH]1)N(C(C)=O)CC3,TGI,[1],> 100 µM
same,TGI,[2],> 100 µM
same,TGI,[4],> 100 µM
same,TGI,[5],> 100 µM
same,TGI,[6],> 100 µM
same,TGI,[7],> 100 µM
same,TGI,[8],> 100 µM
same,TGI,[9],> 100 µM
same,TGI,[10],> 100 µM
same,TGI,[11],> 100 µM
same,TGI,[12],> 100 µM
same,TGI,[13],> 100 µM
same,TGI,[14],> 100 µM
same,TGI,[16],> 100 µM
same,TGI,[17],> 100 µM
same,TGI,[18],> 100 µM
same,TGI,[19],> 100 µM
same,TGI,[20],> 100 µM
same,TGI,[21],> 100 µM
same,TGI,[22],> 100 µM
same,TGI,[23],> 100 µM
same,TGI,[56],> 100 µM
same,TGI,[24],> 100 µM
same,TGI,[25],> 100 µM
same,TGI,[26],> 100 µM
same,TGI,[27],> 100 µM
same,TGI,[28],> 100 µM
same,TGI,[29],> 100 µM
same,TGI,[30],> 100 µM
same,TGI,[32],> 100 µM
same,TGI,[33],> 100 µM
same,TGI,[34],> 100 µM
same,TGI,[35],> 100 µM
same,TGI,[36],> 100 µM
same,TGI,[37],> 100 µM
same,TGI,[38],> 100 µM
same,TGI,[39],> 100 µM
same,TGI,[40],> 100 µM
same,TGI,[41],> 100 µM
same,TGI,[42],> 100 µM
same,TGI,[43],> 100 µM
same,TGI,[44],> 100 µM
same,TGI,[45],> 100 µM
same,TGI,[46],> 100 µM
same,TGI,[47],> 100 µM
same,TGI,[48],> 100 µM
same,TGI,[57],> 100 µM
same,TGI,[49],> 100 µM
same,TGI,[50],> 100 µM
same,TGI,[51],> 100 µM
same,TGI,[52],> 100 µM
same,TGI,[53],> 100 µM
same,TGI,[54],> 100 µM
same,TGI,[55],> 100 µM
COc1ccc(C2=C(N)c3c(Cl)cccc3C2=O)cc1,TGI,[1],> 100 µM
same,TGI,[2],> 100 µM
same,TGI,[3],> 100 µM
same,TGI,[4],> 100 µM
same,TGI,[5],> 100 µM
same,TGI,[6],> 100 µM
same,TGI,[7],> 100 µM
same,TGI,[8],> 100 µM
same,TGI,[9],> 100 µM
same,TGI,[10],> 100 µM
same,TGI,[58],> 100 µM
same,TGI,[11],> 100 µM
same,TGI,[12],> 100 µM
same,TGI,[13],> 100 µM
same,TGI,[14],> 100 µM
same,TGI,[15],> 100 µM
same,TGI,[16],> 100 µM
same,TGI,[17],> 100 µM
same,TGI,[18],> 100 µM
same,TGI,[20],> 100 µM
same,TGI,[21],> 100 µM
same,TGI,[22],> 100 µM
same,TGI,[23],> 100 µM
same,TGI,[56],> 100 µM
same,TGI,[24],> 100 µM
same,TGI,[25],> 100 µM
same,TGI,[26],> 100 µM
same,TGI,[27],> 100 µM
same,TGI,[28],> 100 µM
same,TGI,[29],> 100 µM
same,TGI,[30],> 100 µM
same,TGI,[31],> 100 µM
same,TGI,[32],> 100 µM
same,TGI,[33],> 100 µM
same,TGI,[59],> 100 µM
same,TGI,[34],> 100 µM
same,TGI,[35],> 100 µM
same,TGI,[36],> 100 µM
same,TGI,[37],> 100 µM
same,TGI,[39],> 100 µM
same,TGI,[40],> 100 µM
same,TGI,[41],> 100 µM
same,TGI,[42],> 100 µM
same,TGI,[43],> 100 µM
same,TGI,[44],> 100 µM
same,TGI,[45],> 100 µM
same,TGI,[46],> 100 µM
same,TGI,[47],> 100 µM
same,TGI,[48],> 100 µM
same,TGI,[49],> 100 µM
same,TGI,[50],> 100 µM
same,TGI,[52],> 100 µM
same,TGI,[53],> 100 µM
same,TGI,[54],> 100 µM
